The nature of assay [1]: HeLa cell viability loss – plate reader, dry powder, cytotoxicity control, dose response (AID 651946). Type of assay: functional, cell-based.
Assay [2] in a line: inhibitors of non-replicating M. tuberculosis, dose response, luciferase, dry powder (AID 651620). The assay is classed as functional. Particulars: Mycobacterium tuberculosis.
Assay [3] is described as follows: inhibitors of non-replicating M. tuberculosis, dose response, luciferase, dry powder (AID 651619). Particulars: Mycobacterium tuberculosis. Type of assay: functional.
Assay [4] can be described thus: viability loss in HEK293T cells – cell-based, CellTiter-Glo luminescence, dry powder, set 6, cytotoxicity control, dose response (AID 651949). Particulars: HEK293. The assay is classed as functional. On the technique in general: ATP-based viability assays read luminescence as a measure of living cells.
Assay [5] has as its target Photoreceptor-specific nuclear receptor (Homo sapiens, UniProt Q9Y5X4). Briefly: ligands suppressing NR2E3 nuclear receptor activity – biochemical, TR-FRET, dose response (AID 463256). The assay is classed as functional.
Assay [6] concerns the target E3 ubiquitin-protein ligase UHRF1 (Homo sapiens, UniProt Q96T88). Briefly: Counterscreen for inhibitors of 5-meCpG-binding domain protein 2 (MBD2): TRFRET-based biochemical high throughput dose response assay to identify inhibitors of binding of ubiquitin-like with PHD and ring finger domains 1 (UHRF1) to methylated oligonucleotide. Background: The purpose of a counterscreen is to sort out artefacts and off-target activity.

In assay [7] the target is T1, Small ubiquitin-related modifier 1 (Homo sapiens, UniProt P63165). Briefly: SUMO1 protein-protein binding blockers, potency – biochemical, FRET, dose response (AID 624383). To be noted: read-out: IC50_Mean. The assay is classed as functional.
T1 sequence (P63165 whole entry): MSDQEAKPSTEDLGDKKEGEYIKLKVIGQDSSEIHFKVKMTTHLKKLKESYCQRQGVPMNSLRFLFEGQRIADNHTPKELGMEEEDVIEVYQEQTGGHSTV
Assay [8] concerns the target Peroxisome proliferator-activated receptor gamma/Nuclear receptor corepressor 2 (Homo sapiens, UniProt P37231+Q9Y618). Briefly: Counterscreen for NR2E3 inverse agonists: TR-FRET-based biochemical high throughput dose response assay to identify inverse agonists of the interaction between peroxisome proliferator-activated receptor gamma (PPARg) and nuclear receptor co-repressor 2 (NCOR2). The assay is classed as functional.

Assay [9] addresses T1, Small ubiquitin-related modifier 1. Briefly: SUMO1 protein interaction blockers, potency – biochemical, fluorescence polarization, uHTS hits, dose response (AID 624382). Particulars: read-out: IC50_Mean. Type of assay: functional. On the technique in general: Polarisation of emitted light reports the rotation of a fluorescent probe.
The target in assay [10] is NAD-dependent protein deacylase sirtuin-5, mitochondrial (Homo sapiens, UniProt Q9NXA8). Briefly: blockers of sirtuin-5 peptide desuccinylation – biochemical, fluorescence imaging, cherry-pick, set 6, dose response (AID 720597).
Sequence of NAD-dependent protein deacylase sirtuin-5, mitochondrial (Q9NXA8 whole entry): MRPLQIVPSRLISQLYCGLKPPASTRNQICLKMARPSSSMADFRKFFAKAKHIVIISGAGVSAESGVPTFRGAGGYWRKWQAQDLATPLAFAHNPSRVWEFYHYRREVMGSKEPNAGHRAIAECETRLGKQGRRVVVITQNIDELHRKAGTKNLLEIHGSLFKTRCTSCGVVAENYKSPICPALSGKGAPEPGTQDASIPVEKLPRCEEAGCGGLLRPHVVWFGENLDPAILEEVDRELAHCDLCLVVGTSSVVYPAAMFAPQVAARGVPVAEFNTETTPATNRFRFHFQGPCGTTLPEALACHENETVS
The nature of assay [11]: PAX5 cellular inhibition readout – cell-based, plate reader, dry powder samples, selectivity assay for PAX8 inhibitor project, dose response (AID 743047).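 Further: HEK293 cells carrying a Pax5 driven CD19 promoter luciferase reporter; potency of inhibitors that lower reporter luminescence.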 Type of assay: functional.
The nature of assay [12]: Dd2 malaria parasite growth inhibition potency – SYBR Green, dry powder samples, dose response (AID 1159566).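 Further: potency for growth inhibition with lower SYBR green DNA signal.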 The assay is classed as functional, cell-based.
Assay [13] is described as follows: growth inhibition of yeast DHODH-expressing 3D7 parasites – SYBR Green, dry powder samples, dose response (AID 1159570).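 Further: parasite growth measured after 72 hours of compound exposure.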 Type of assay: functional, cell-based.
Assay [14] can be described thus: OVCAR-3 cell viability loss – plate reader, dry powder samples, PAX8 inhibitor project, dose response (AID 743044). Type of assay: functional, cell-based.
A short description of assay [15]: OV-90 cell viability loss – plate reader, dry powder, SA8, PAX8 inhibitor project, dose response (AID 743149). Type of assay: functional, cell-based.
The nature of assay [16]: inhibitors acting on PAX2 in cells – cell-based, plate reader, dry powder samples, selectivity assay for PAX8 inhibitor project, dose response (AID 743048).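 Further: HEK293 cells carrying a WT1 promoter luciferase reporter driven by expressed Pax2; potency is for inhibition of Pax2 driven reporter signal.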 The assay is classed as functional.
A short description of assay [17]: COV362 cell viability loss – plate reader, dry powder, SA12, cytotoxicity control for PAX8 inhibitor project, dose response (AID 743144). The assay is classed as functional, cell-based.
Assay [18] in a line: OVCAR4 cell viability loss – plate reader, dry powder, SA11, cytotoxicity control for PAX8 inhibitor project, dose response (AID 743150). Type of assay: functional, cell-based. To be noted: OVCAR-4.
Assay [19] can be described thus: COV434 cell viability loss – plate reader, dry powder, SA7, cytotoxicity control for PAX8 inhibitor project, dose response (AID 743145). The assay is classed as functional, cell-based.
The target in the next assay is Paired box protein Pax-8 (Homo sapiens, UniProt Q06710). Briefly: PAX8 transcriptional activity inhibition in RMG-I – RMG-I cells, luciferase, cherry-pick, dose response (AID 687027).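 Further: luciferase reporter driven by Pax8 target thyroperoxidase promoter measured by SteadyGlo luminescence.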 Type of assay: functional, cell-based.
Sequence of Paired box protein Pax-8 (Q06710 whole entry): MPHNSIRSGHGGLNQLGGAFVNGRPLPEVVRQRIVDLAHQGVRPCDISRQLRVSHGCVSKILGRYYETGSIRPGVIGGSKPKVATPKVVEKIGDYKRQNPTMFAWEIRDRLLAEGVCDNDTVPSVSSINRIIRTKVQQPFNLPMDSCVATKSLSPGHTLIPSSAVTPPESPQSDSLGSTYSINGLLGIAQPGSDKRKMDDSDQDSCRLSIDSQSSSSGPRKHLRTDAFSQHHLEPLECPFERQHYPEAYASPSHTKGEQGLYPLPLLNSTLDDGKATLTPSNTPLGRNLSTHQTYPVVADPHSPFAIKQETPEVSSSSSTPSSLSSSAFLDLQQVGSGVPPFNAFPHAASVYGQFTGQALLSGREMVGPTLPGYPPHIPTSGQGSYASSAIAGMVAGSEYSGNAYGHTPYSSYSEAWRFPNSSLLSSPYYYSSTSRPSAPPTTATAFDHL
The nature of assay [20]: growth inhibition of PfATP4-mutant resistant parasites – NITD609-resistant line, SYBR Green, dry powder, dose response (AID 1159571).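 Further: parasites synchronized at ring stage by sorbitol before testing.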 Type of assay: functional, cell-based.
Assay [21] can be described thus: toxicity to human hepatoma HepG2 cells – cell-based, cherry-picked samples, cytotoxicity control, dose response (AID 1159577). Type of assay: functional.
The nature of assay [22]: P. falciparum Dd2 growth inhibitors, dose response, SYBR Green, cherry-picked samples (AID 1159567). Type of assay: functional, cell-based.
Assay [23] is described as follows: PAX8-dependent cell viability loss – plate reader, dry powder, dose response (AID 743049). The assay is classed as functional, cell-based.
Assay [24] can be described thus: A2780 cell killing – plate reader, dry powder samples, cytotoxicity control, dose response (AID 743046). The assay is classed as functional, cell-based.
In a further assay the test system is HEK293. Briefly: viability loss in HEK293T cells – cell-based, ATP luminescence, cherry-pick samples, cytotoxicity control, dose response (AID 687005).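 Further: cells exposed to compound for 48 hours.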 The assay is classed as functional. To be noted: Homo sapiens.
Assay [25] can be described thus: HEK293 Cytotoxicity Assay Measured in Cell-Based System Using Plate Reader - 7071-01_Inhibitor_Dose_CherryPick_Activity_Set2. The assay is classed as functional.

The term AC50 denotes the concentration giving half of the maximal activity seen. By IC90 is commonly meant the point of the concentration-response curve where the effect stands at 90%.

The source made the active and inactive calls.

Sequence of Photoreceptor-specific nuclear receptor (Q9Y5X4 whole entry, the tested form may be a part): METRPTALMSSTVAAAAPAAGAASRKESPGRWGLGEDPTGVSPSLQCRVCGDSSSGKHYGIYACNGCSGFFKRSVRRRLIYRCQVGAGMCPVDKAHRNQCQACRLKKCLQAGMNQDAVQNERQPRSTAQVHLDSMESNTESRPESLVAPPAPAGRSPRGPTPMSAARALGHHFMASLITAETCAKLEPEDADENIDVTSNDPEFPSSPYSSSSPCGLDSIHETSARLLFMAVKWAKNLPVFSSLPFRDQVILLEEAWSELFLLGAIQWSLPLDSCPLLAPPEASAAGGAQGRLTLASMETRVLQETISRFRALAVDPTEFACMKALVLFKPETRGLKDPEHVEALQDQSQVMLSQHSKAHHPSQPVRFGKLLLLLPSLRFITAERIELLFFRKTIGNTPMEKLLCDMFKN
Sequence of Peroxisome proliferator-activated receptor gamma/Nuclear receptor corepressor 2 (P37231 whole entry): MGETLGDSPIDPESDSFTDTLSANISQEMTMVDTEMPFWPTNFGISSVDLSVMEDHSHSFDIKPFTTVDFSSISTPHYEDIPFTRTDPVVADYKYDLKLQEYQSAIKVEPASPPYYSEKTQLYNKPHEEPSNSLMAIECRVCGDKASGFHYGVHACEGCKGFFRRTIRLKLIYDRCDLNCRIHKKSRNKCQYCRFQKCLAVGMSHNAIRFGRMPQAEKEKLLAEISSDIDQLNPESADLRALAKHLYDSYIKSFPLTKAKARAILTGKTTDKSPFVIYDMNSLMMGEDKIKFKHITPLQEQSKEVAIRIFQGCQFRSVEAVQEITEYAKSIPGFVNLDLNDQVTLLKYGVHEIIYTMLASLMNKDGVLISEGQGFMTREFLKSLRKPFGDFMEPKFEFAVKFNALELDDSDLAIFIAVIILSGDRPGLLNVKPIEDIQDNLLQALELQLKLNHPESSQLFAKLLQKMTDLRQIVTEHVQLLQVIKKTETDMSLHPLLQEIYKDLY
Sequence of Peroxisome proliferator-activated receptor gamma/Nuclear receptor corepressor 2 (Q9Y618 whole entry): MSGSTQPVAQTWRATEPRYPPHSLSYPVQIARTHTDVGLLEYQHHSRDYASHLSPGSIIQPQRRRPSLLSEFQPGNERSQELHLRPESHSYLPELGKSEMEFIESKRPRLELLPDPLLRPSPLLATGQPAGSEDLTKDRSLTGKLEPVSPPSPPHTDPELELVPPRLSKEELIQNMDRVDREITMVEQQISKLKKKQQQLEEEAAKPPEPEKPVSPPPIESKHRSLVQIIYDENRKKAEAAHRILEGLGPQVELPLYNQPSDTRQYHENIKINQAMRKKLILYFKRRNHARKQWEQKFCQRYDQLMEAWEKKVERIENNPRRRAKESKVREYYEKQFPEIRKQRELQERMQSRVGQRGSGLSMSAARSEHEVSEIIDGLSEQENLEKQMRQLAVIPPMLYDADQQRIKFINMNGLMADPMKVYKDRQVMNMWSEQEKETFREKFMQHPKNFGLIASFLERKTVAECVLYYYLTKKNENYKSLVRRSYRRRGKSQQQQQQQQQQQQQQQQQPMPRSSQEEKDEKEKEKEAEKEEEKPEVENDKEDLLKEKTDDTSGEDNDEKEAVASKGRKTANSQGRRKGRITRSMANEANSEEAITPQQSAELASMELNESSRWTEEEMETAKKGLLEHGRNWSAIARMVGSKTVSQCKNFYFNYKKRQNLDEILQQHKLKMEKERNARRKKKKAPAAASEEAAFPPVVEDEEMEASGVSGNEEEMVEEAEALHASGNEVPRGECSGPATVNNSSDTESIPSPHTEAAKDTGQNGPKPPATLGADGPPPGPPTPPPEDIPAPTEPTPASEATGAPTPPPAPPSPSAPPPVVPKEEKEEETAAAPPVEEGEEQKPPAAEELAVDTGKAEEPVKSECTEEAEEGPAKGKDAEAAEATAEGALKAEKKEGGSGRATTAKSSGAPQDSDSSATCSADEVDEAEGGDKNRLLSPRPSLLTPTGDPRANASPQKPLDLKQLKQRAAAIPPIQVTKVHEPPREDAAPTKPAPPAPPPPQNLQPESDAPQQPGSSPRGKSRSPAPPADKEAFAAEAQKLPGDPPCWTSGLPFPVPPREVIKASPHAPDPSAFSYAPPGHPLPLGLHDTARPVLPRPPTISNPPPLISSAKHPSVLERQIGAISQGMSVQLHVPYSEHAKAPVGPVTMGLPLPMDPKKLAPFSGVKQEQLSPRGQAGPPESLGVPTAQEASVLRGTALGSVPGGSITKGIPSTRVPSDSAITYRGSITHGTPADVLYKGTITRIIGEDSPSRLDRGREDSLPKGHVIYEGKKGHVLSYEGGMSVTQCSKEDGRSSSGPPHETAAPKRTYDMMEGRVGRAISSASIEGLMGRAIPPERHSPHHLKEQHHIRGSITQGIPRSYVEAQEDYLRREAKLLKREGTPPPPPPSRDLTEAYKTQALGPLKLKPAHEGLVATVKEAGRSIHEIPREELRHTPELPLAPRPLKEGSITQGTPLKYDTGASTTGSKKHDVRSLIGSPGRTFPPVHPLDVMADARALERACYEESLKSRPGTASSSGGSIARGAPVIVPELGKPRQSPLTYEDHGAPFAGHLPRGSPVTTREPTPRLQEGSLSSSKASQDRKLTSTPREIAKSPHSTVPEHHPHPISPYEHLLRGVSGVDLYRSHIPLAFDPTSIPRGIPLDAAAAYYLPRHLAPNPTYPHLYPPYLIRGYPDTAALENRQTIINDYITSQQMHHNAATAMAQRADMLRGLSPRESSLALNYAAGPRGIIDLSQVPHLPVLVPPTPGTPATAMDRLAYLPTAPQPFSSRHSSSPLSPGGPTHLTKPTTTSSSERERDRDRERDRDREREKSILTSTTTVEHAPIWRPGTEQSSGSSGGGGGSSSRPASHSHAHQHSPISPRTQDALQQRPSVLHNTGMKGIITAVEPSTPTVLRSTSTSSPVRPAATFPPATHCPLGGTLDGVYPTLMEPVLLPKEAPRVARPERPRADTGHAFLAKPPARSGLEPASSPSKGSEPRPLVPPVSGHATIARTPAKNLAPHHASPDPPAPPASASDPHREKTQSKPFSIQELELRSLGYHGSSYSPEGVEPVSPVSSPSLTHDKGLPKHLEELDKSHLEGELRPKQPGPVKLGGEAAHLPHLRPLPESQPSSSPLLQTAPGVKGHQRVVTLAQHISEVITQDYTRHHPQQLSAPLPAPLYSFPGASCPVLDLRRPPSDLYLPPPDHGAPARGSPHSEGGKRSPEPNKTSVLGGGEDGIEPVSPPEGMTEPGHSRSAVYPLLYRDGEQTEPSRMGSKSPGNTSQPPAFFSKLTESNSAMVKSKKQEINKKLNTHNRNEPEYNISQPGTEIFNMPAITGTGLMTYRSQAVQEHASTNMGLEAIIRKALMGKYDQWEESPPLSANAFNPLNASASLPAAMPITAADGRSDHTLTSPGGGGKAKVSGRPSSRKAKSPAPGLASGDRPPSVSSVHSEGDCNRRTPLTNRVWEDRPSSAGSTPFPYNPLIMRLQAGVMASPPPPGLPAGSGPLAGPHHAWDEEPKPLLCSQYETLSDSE

In the case of `Fc1ccc(Cn2cc(CSc3nnc(-c4ccc(Cl)cc4)o3)nn2)cc1`, the AC50 in [1] and in [4] was > 52 µM (inactive) throughout. Besides, the IC90 in [2] and in [3] was 1 µM (active) throughout.

Regarding `N#CCC(=O)Nc1ccc(C(=O)OCC(=O)c2ccc3c(c2)NC(=O)CO3)cc1`, the IC50 in assay [5] is 4.46 µM (active); in assay [6], > 43.8 µM (inactive); in assay [7], 10.1 µM (active); in assay [8], 4.39 µM (active); in assay [9], > 66.6 µM (inactive).

`C[C@H](CO)N1C[C@H](C)[C@H](CN(C)C(=O)Cc2ccccc2)Oc2ncc(C3=CCCCC3)cc2C1=O`: the AC50 in assay [10] was > 30 µM (inactive).

For `N#C[C@H]1[C@@H](c2ccc(C#Cc3ccccc3F)cc2)[C@@H](CO)N1C(=O)C1CCCCC1`, the concentration at half-maximal activity (AC50) in [11] was 13 µM (active); in assay [12], 584 nM (active); in assay [13] it was 800 nM (active); in [14], 16.1 µM (active); in [15], 27.7 µM (active); in [16] it was 14.2 µM (active). Besides, the AC50 was 36.2 µM (active) in [17]; 3.01 µM (active) in assay [18]; 20.3 µM (active) in assay [19]; 3.09 µM (active) at Paired box protein Pax-8; 1.23 µM (active) in [20]; > 39 µM (inactive) in assay [21]. Moreover, the AC50 in [22] was 1.09 µM (active); in assay [23], 7.86 µM (active).

For `COc1cccc(S(=O)(=O)N(C)C[C@@H]2OCc3ccccc3-c3ccccc3C(=O)N([C@@H](C)CO)C[C@@H]2C)c1`, the AC50 was 15.9 µM (active) at Paired box protein Pax-8, 53.8 µM (active) in assay [24], 36 µM (active) with HEK293 and 36 µM (active) in assay [25].
